In PubChem BioAssay (NCI) one finds TGI data, which are given here for 12 molecules.

Molecules are shown by their SMILES.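 Grown in 96-well plates, cells were treated for 48 hours with each compound at five concentrations. Insufficient inhibition: endpoint recorded as highest concentration tested. TGI denotes the concentration required for complete inhibition of growth.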

Some test systems named below: DMS 273 small cell lung; LXFL 529 NSCLC; M19-MEL melanoma; DLD-1 colon; DMS 114 small cell lung; HOP-18 NSCLC; RXF-631 renal; SN12K1 renal; P388/ADR leukemia; P388 leukemia.
Holding throughout (assay): NCI tumour cell line growth inhibition, 48 h

For the molecule `COc1cc(C2C(Cl)C(=O)N2NC(=O)c2ccc(N)cc2)cc(Br)c1O` (stereo not given), the TGI in the assay with DMS 273 small cell lung stood at 31.9 µM; in the assay with LXFL 529 NSCLC it was 11.3 µM; in the assay on M19-MEL melanoma, 32 µM; in the assay with DLD-1 colon it was 40.2 µM; in the assay on DMS 114 small cell lung it was 21.8 µM.
As to `CCN(CC)Cc1c(/C=C\c2cc(OC)c(OC)c(OC)c2)ccc(OC)c1O`, the TGI in the assay on DMS 273 small cell lung was > 100 µM; with HOP-18 NSCLC, > 100 µM; with LXFL 529 NSCLC, > 100 µM; with M19-MEL melanoma, > 100 µM; in the assay on DLD-1 colon, > 100 µM; with DMS 114 small cell lung it was 5.68 µM.
For `Ic1cc2c(cc1C1SCCCS1)OCO2`, the TGI with DMS 273 small cell lung, with HOP-18 NSCLC, in the assay on LXFL 529 NSCLC, with M19-MEL melanoma, in the assay on RXF-631 renal and in the assay on DLD-1 colon was > 100 µM in each case. Further, the TGI in the assay with DMS 114 small cell lung is > 100 µM.
In the case of `CC(C)(C)C1=CC(=C2C(=O)C(=O)c3ccccc3C2=O)C=C(C(C)(C)C)C1=O`, the TGI was > 100 µM in the assay on DMS 273 small cell lung; > 100 µM in the assay on HOP-18 NSCLC; > 100 µM in the assay with LXFL 529 NSCLC; > 100 µM in the assay with M19-MEL melanoma; > 100 µM in the assay with DLD-1 colon; 66.2 µM in the assay on DMS 114 small cell lung.
For `O=Cc1ccc(CCl)cc1`, the TGI turned out to be 38.8 µM in the assay with DMS 273 small cell lung; 37.4 µM in the assay with HOP-18 NSCLC; 31.4 µM with LXFL 529 NSCLC; 52.5 µM in the assay on M19-MEL melanoma; 14.7 µM with RXF-631 renal; 31.4 µM with DLD-1 colon. For the same molecule, in the assay with DMS 114 small cell lung, the TGI was found to be 23.5 µM.
Regarding `COC(=O)C(C/C=C(\C)c1ccc(Cl)cc1)C(C)=O` (stereo not given), the TGI in the assay on DMS 273 small cell lung was > 72 µM; with HOP-18 NSCLC, > 100 µM; with SN12K1 renal, > 61.7 µM; in the assay on P388/ADR leukemia, > 76.5 µM; in the assay with M19-MEL melanoma it was > 92.5 µM; in the assay with DLD-1 colon, > 100 µM. The TGI with DMS 114 small cell lung was > 73.8 µM; with P388 leukemia it was 46 µM.
As to `CN1CCN(c2ccc3nc(-c4ccc5nc(-c6ccc(O)cc6)[nH]c5c4)[nH]c3c2)CC1`, the TGI in the assay with DMS 273 small cell lung worked out at 158 µM; in the assay on HOP-18 NSCLC, 556 µM; in the assay on SN12K1 renal, 552 µM; in the assay on P388/ADR leukemia, 725 µM; in the assay with M19-MEL melanoma, 283 µM; in the assay with DLD-1 colon, 487 µM. Also, the TGI in the assay on DMS 114 small cell lung was 483 µM; with P388 leukemia it was 439 µM.
Consider `CCCCCC/C=C1\CCC(CN2CCOCC2)C1=O` (stereo not given), for which the TGI in the assay on DMS 273 small cell lung came to 32.5 µM; with HOP-18 NSCLC, 20 µM; in the assay with LXFL 529 NSCLC, 11.1 µM; in the assay on DLD-1 colon it was 27.4 µM; with DMS 114 small cell lung, 33.2 µM.
Turning to `O=C(Nc1cccc2c1[nH]c1c(-c3ccccc3)nccc12)c1ccccc1[N+](=O)[O-]`, the TGI in the assay with DMS 273 small cell lung, in the assay with HOP-18 NSCLC, in the assay with LXFL 529 NSCLC and in the assay on RXF-631 renal was > 100 µM in each case.
Regarding `CCN(CC)CCNc1ccc2nnn3c4ccc(O)cc4c(=O)c1c23`, the TGI with HOP-18 NSCLC worked out at 42.7 µM; in the assay with LXFL 529 NSCLC, 20.3 µM; with DLD-1 colon it was 17.5 µM; in the assay on DMS 114 small cell lung, 22.1 µM.
As to `CSc1nc2c(ncn2C2OCC(O)C(O)C2O)c(=O)n1C` (stereo not given), the TGI in the assay with DMS 273 small cell lung, in the assay on HOP-18 NSCLC, in the assay on SN12K1 renal, in the assay on P388/ADR leukemia, in the assay on M19-MEL melanoma and in the assay on DLD-1 colon was > 100 µM in each case. Besides, the TGI in the assay with DMS 114 small cell lung and in the assay with P388 leukemia was > 100 µM in each case.
Take `CC(=O)OC1COC(N2C(=O)C(=O)c3cc(Br)ccc32)C(OC(C)=O)C1OC(C)=O` (stereo not given): the TGI in the assay with DMS 273 small cell lung, in the assay with HOP-18 NSCLC, with LXFL 529 NSCLC, in the assay on M19-MEL melanoma, with RXF-631 renal and in the assay on DLD-1 colon was > 100 µM each time. Also, the TGI in the assay on DMS 114 small cell lung was > 100 µM.
